Reference: patent US20230003720A1 (priority 2016, published 2023)

How the values were obtained:
mOR18-2 = target: T1, mOR18-2 (Mus musculus, UniProt Q8VBV9); format: cell-based
T1 construct: expressed in transfected cells
T1 sequence (Q8VBV9 1-320): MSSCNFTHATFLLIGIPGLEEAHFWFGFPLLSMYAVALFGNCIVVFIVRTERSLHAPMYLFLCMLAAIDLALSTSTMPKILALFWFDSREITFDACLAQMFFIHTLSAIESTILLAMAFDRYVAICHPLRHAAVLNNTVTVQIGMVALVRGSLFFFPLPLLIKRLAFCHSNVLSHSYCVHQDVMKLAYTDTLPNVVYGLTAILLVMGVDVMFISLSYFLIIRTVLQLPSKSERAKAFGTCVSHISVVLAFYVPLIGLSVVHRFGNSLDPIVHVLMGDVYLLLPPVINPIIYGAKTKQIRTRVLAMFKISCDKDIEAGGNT

mOR178-1 = format: cell-based, mouse
mOR18-1 = format: cell-based, Mus musculus
OR2W1 = target: T2, OR2W1 (Homo sapiens, UniProt Q9Y3N9); format: cell-based
T2 construct: expressed in transfected cells
T2 sequence (Q9Y3N9 1-320): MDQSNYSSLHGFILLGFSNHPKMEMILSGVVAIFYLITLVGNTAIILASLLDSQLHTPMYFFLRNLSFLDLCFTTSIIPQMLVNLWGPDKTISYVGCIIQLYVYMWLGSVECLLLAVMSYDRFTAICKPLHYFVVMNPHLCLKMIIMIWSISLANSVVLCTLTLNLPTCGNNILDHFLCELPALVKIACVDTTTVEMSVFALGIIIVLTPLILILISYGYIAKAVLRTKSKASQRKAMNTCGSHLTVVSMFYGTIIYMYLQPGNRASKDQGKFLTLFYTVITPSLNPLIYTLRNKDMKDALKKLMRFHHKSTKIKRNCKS

Measured: receptor response as measured levels of luminescence

CCN(CC)C(=O)[C@@H]1C=C2c3cccc4[nH]cc(c34)C[C@H]2N(C)C1 [LSD]
responded: all assays above

c1ccc(C2(N3CCCCC3)CCCCC2)cc1 [PCP]
responded: all assays above

CC(=O)Oc1ccc2c3c1O[C@H]1[C@@H](OC(C)=O)C=C[C@H]4[C@@H](C2)N(C)CC[C@@]341 [heroine]
responded: all assays above
